Measurements: the OPERA property sets (Mansouri et al. 2018)

Conditions: for log10 BCF / log10 biotransformation half-life (days): fish

Compound	boiling point	melting point	other results
CCCN(CCC)c1ccccc1	242 °C	–	–
CCNc1ccccc1	203 °C	-63.5 °C	log10 Henry constant (atm·m³/mol): -5.01; log10 vapour pressure (mmHg): -0.69; ready biodegradability: not readily biodegradable; log10 BCF: 1.11; log10 biotransformation half-life (days): -0.65
CC(C)(C)CBr	106 °C	–	–
CC(C)c1ccc(N)cc1	225 °C	–	log10 vapour pressure (mmHg): -1.08; ready biodegradability: not readily biodegradable
CCOC(=O)C(=O)C(=O)OCC	210 °C	-30 °C	–
c1ccc(NC2CCCCC2)cc1	279 °C	16 °C	–
C=C(C)C(=O)OCCCC	160 °C	-75 °C	log10 vapour pressure (mmHg): 0.326; ready biodegradability: readily biodegradable
CCCc1cccc(C)c1	182 °C	-82.5 °C	log10 vapour pressure (mmHg): 0.425
O=C(O)c1ccc([N+](=O)[O-])cc1	–	242 °C	ready biodegradability: readily biodegradable
O=C(Nc1cccc(Cl)c1)OCC#CCCl	–	75 °C	log10 Koc (L/kg): 3.06; log10 vapour pressure (mmHg): -6.42; ready biodegradability: not readily biodegradable
O=Cc1ccc(F)cc1	182 °C	-10 °C	–
FC(Cl)C(F)(F)F (stereo unspecified)	-12 °C	–	log10 vapour pressure (mmHg): 3.46
CCN(CC)CCOC(=O)C(c1ccccc1)c1ccccc1	–	114 °C	–
CC#CC=CC	88.5 °C	–	–
CCC1CCc2ccccc21 (stereo unspecified)	212 °C	–	–
Cc1cc(O)c(C(C)C)cc1Cl	258 °C	63 °C	–
N#Cc1ccccc1C(F)(F)F	205 °C	18 °C	–
CC(C)(C#N)/N=N/C(C)(C)C#N	–	102 °C	–
CCCCC(C)C	90 °C	-118 °C	log10 biodegradation half-life (days): 0.477; log10 vapour pressure (mmHg): 1.82
COc1cc(NS(=O)(=O)c2ccc(N)cc2)nc(OC)n1	–	204 °C	–
C[C@@H]1O[C@@H](O[C@H]2CC[C@]3(C=O)[C@H]4CC[C@]5(C)[C@@H](C6=CC(=O)OC6)CC[C@]5(O)[C@@H]4CC[C@]3(O)C2)[C@H](O)[C@H](O)[C@H]1O	–	238 °C	–
Cc1cc(C)c(O)c(C)c1C	240 °C	80.5 °C	–
CCCCCCCCCCC1CCCC1	279 °C	-22 °C	–
c1ccc(CCCc2ccncc2)cc1	322 °C	–	–
CC(C)CCOC(=O)OCCC(C)C	234 °C	–	–

Compound	boiling point	melting point	other results
CCCCC(C)(C)C(C)C	160 °C	–	–
BrCCCCCCCCCCCCCCBr	–	50.4 °C	–
CCOC(=O)c1c[nH]c(=S)[nH]c1=O	–	252 °C	–
O=C(O)c1c(Cl)ccc2cc(Cl)cnc12	–	274 °C	–
Cc1ccc(C)c2occc12	216 °C	–	–
CCCc1ccccn1	167 °C	2 °C	–
OC[C@H]1O[C@@H](n2cnc3c2N=CNC[C@H]3O)C[C@@H]1O	–	220 °C	–
CCOC(=O)CCCC(C)=O	222 °C	–	–
CC=CCC	36.7 °C	-146 °C	–
CCCCCCCC1CCCC(=O)O1 (stereo unspecified)	–	-12 °C	–
CC(C)CC(C)CC(C)C	148 °C	–	–
CCOc1cc(Oc2ccc(C(F)(F)F)cc2Cl)ccc1[N+](=O)[O-]	358 °C	84 °C	log10 Koc (L/kg): 5; log10 vapour pressure (mmHg): -6.7
N#Cc1cccc(C#N)c1	–	162 °C	ready biodegradability: not readily biodegradable; log10 BCF: 0.75; log10 biotransformation half-life (days): -0.62
CC(=O)CC(=O)Nc1ccc(-c2ccc(NC(=O)CC(C)=O)c(C)c2)cc1C	–	212 °C	ready biodegradability: not readily biodegradable; log10 BCF: 0.2; log10 biotransformation half-life (days): -1.5
CCC(C)CC(C)C(C)C (stereo unspecified)	161 °C	–	–
CC[C@@H]1CCC[C@H]1C	125 °C	-106 °C	log10 vapour pressure (mmHg): 1.3
COc1ccc(Cl)cc1C(=O)NCCc1ccc(S(=O)(=O)NC(=O)NC2CCCCC2)cc1	–	169 °C	–
CC(Oc1ccc(Cl)cc1Cl)C(=O)O (stereo unspecified)	–	122 °C	log10 Koc (L/kg): 2.23; log10 vapour pressure (mmHg): -6.73
CCOP(=S)(OCC)SCCSCC	–	-25 °C	log10 Koc (L/kg): 3.22; log10 vapour pressure (mmHg): -4.01; log10 BCF: 2.34; log10 biotransformation half-life (days): 0.03
CCC(CC)C(=O)OCCOCCOCCOC(=O)C(CC)CC	–	–	ready biodegradability: readily biodegradable
CC(C)(Cl)Br	95 °C	–	–
CC1(C)S[C@@H]2[C@H](NC(=O)C3(N)CCCCC3)C(=O)N2[C@H]1C(=O)O	–	182 °C	–
CCCCCCCCCCCCCCCCCCS	360 °C	30 °C	log10 vapour pressure (mmHg): -6.4; ready biodegradability: not readily biodegradable
CCCCCCCCCF	168 °C	1 °C	–
C1CS1	55.5 °C	–	log10 vapour pressure (mmHg): 2.4

Compound	boiling point	melting point	other results
Cc1ccccc1C	144 °C	-25.2 °C	log10 Henry constant (atm·m³/mol): -2.29; log10 Koa: 3.91; log10 Koc (L/kg): 2.25; log10 biodegradation half-life (days): 0.778; log10 vapour pressure (mmHg): 0.82; ready biodegradability: readily biodegradable; log10 BCF: 1.15
ClC(Cl)=C(Cl)Cl	121 °C	-22.3 °C	log10 Henry constant (atm·m³/mol): -1.75; log10 Koa: 3.48; log10 Koc (L/kg): 2.4; log10 vapour pressure (mmHg): 1.27; ready biodegradability: not readily biodegradable; log10 BCF: 1.72; log10 biotransformation half-life (days): -0.88
C[C@H](CCC(=O)O)[C@H]1CC[C@H]2[C@@H]3C(=O)C[C@@H]4CC(=O)CC[C@]4(C)[C@H]3CC(=O)[C@]12C	–	237 °C	–
CC(=CC(C)C)CC(C)C	–	–	log10 biotransformation half-life (days): 0.92
CCn1c2ccccc2c2ccccc21	–	68 °C	log10 vapour pressure (mmHg): -3.66
CCOC(=O)C1(C(=O)OCC)CCCC1	210 °C	–	–
NCCS	–	98 °C	–
C[C@@H]1C[C@H]2[C@@H]3CCC4=CC(=O)C=C[C@]4(C)[C@@]3(F)[C@@H](O)C[C@]2(C)[C@H]1C(=O)CO	–	217 °C	–
Clc1cc(Cl)cc(C2(CC(Cl)(Cl)Cl)CO2)c1 (stereo unspecified)	–	42.8 °C	log10 Koc (L/kg): 3.75
CCCCCCOC(=O)CCCCCCCC(=O)OCCCCCC	–	-8 °C	–
O=C(O)c1ccc2ccccc2n1	–	156 °C	ready biodegradability: readily biodegradable
O=c1c(O)c(-c2ccccc2)oc2cc(O)cc(O)c12	–	214 °C	–
CCCC/C=C/CCCC	171 °C	-73 °C	–
C=C1CCCCC1	102 °C	-107 °C	log10 vapour pressure (mmHg): 1.6
O=c1occc2ccccc12	286 °C	47 °C	–
Cc1cccc2cc3ccccc3cc12	–	85.5 °C	–
CCCCCCCCCCCCC(CCCCCCCCCCC)CCCCCCCCCCCC	–	9.7 °C	–
CC(C)(Cl)C(=O)O	–	31 °C	–
CCCCCCCC/C=C\CCCCCCCCCCCCC	378 °C	–	log10 vapour pressure (mmHg): -4.45
CC(C)(C)NC[C@H](O)COc1ccccc1C1CCCC1	–	70 °C	–
C=C1COC2(OCCCO2)OC1	–	–	ready biodegradability: not readily biodegradable
Fc1c(F)c(F)c(Br)c(Br)c1F	198 °C	12 °C	–
CCCCCCCCCCCCCCCCCC(CC)c1ccccc1 (stereo unspecified)	–	29.3 °C	–
N[C@@H](CC(=O)O)C(=O)O (racemic)	–	272 °C	–
CCOC(=O)CCCCCBr	–	33 °C	–

Compound	boiling point	melting point	other results
CC(Oc1cc(Cl)c(Cl)cc1Cl)C(=O)O (stereo unspecified)	–	182 °C	log10 Koc (L/kg): 1.75; ready biodegradability: not readily biodegradable
FC(F)C(F)(F)OCC(F)(F)F	56.2 °C	–	log10 vapour pressure (mmHg): 2.33
O=c1ccc2cc3ccoc3cc2o1	–	164 °C	–
CCOc1ccccc1OCC	219 °C	44 °C	–
O=[N+]([O-])c1ccc(O)cc1	279 °C	114 °C	log10 Henry constant (atm·m³/mol): -9.38; log10 Koc (L/kg): 2.37; log10 vapour pressure (mmHg): -4.01; ready biodegradability: not readily biodegradable; log10 BCF: 0.71
O=C(NCN1CCOCC1)c1cnccn1	–	118 °C	–
N#Cc1ccc(Cl)cc1N	–	161 °C	–
O=[N+]([O-])C(F)(F)F	–	–	log10 vapour pressure (mmHg): 3.85
FC(F)(Br)C(F)(F)Br	47.3 °C	-110 °C	log10 vapour pressure (mmHg): 2.51; ready biodegradability: not readily biodegradable
CCB(Cl)CC	78.5 °C	-84.6 °C	–
O=C1C=C(c2ccccc2)CC1	234 °C	-23 °C	–
COC1=C[C@@H]2[C@@H]3Cc4ccc(OC)c(O)c4[C@]2(CCN3C)CC1=O	–	162 °C	–
C=C/C=C\CC1=C(C)[C@@H](OC(=O)[C@@H]2[C@@H](C=C(C)C)C2(C)C)CC1=O	–	–	log10 vapour pressure (mmHg): -4.69
C1O[C@@H]1[C@@H]1CO1	144 °C	3.5 °C	–
COc1c(OC)c(OC(C)=O)c2c(OC)cccc2c1OC(C)=O	–	69.5 °C	–
CC1CCCCCC1=O (stereo unspecified)	185 °C	–	–
COCCC(=O)OC	143 °C	–	–
Cc1cccc(C(=O)O)c1C	–	146 °C	–
OCc1cc(O)ccc1O	–	100 °C	–
CCCOC(=O)CC(C)C	156 °C	–	log10 vapour pressure (mmHg): 0.413
CCC(=O)C1(c2cccc(O)c2)CCN(C)CC1	–	156 °C	–
Cc1cc(CC(=O)O)n(C)c1C(=O)c1ccc(Cl)cc1	–	178 °C	–
OC1c2ccccc2-c2ccccc21	–	154 °C	–
CN(C)CCCN1c2ccccc2S(=O)c2ccc(Cl)cc21 (stereo unspecified)	–	115 °C	–
N#CCI	185 °C	–	–

Compound	boiling point	melting point	other results
CCC(C)(C)O	102 °C	-9.1 °C	log10 Henry constant (atm·m³/mol): -4.86; log10 vapour pressure (mmHg): 1.22; ready biodegradability: not readily biodegradable
CC(=O)c1ccc[nH]1	220 °C	90 °C	–
COP(=S)(OC)Oc1ccc([N+](=O)[O-])c(C)c1	–	3.4 °C	log10 Henry constant (atm·m³/mol): -6.03; log10 Koc (L/kg): 2.63; log10 vapour pressure (mmHg): -4.27; ready biodegradability: readily biodegradable; log10 BCF: 1.95; log10 biotransformation half-life (days): 0.03
COc1c(Cl)c(Cl)c(Cl)c(Cl)c1OC	–	90 °C	–
CC(C)I	89.5 °C	-90 °C	log10 vapour pressure (mmHg): 1.63
CC12CCC(C1)C(C)(C)C2=O (stereo unspecified)	–	5.37 °C	log10 vapour pressure (mmHg): -0.0876
C/C(=C/CC[C@@]1(C)C2C[C@@H]3[C@H](C2)C31C)CO	302 °C	–	–
c1ccc2c(c1)sc1ccccc12	332 °C	97 °C	log10 Koc (L/kg): 4.05; log10 biodegradation half-life (days): 1.56; log10 vapour pressure (mmHg): -3.69; ready biodegradability: not readily biodegradable; log10 BCF: 3.05; log10 biotransformation half-life (days): 0.83
O=S(=O)(Cc1ccccc1)Cc1ccccc1	–	152 °C	–
CCCCCCC(CCCCCC)CCCCCC	–	-28.3 °C	–
O=C(OCC(=O)N1CCCCCC1)c1ccccc1	–	108 °C	–
CCC(C)(CC)OC(N)=O	–	56 °C	log10 vapour pressure (mmHg): -0.155
O=C(c1ccccc1)C1CCC1	260 °C	–	–
O=C1CCCN1CCO	295 °C	20 °C	–
N#Cc1ccc(N)cc1Cl	–	118 °C	–
CCCCSCCCC	185 °C	-79.7 °C	log10 vapour pressure (mmHg): 0.0792
C#CCCCCC	99.7 °C	-81 °C	log10 vapour pressure (mmHg): 1.72
CCCCCC(N)=O	255 °C	101 °C	–
Cc1ccc2ncccc2c1	259 °C	-22 °C	log10 vapour pressure (mmHg): -2.19
CCCCCCCCCCCCCCCC(=O)[O-].[Na+]	–	286 °C	–
CC(C)Cc1ccccc1	–	–	log10 biodegradation half-life (days): 1
C[C@]12CC[C@@H](O)C[C@H]1CC[C@@H]1[C@@H]2C(=O)C[C@@]2(C)[C@H]1CC[C@]2(O)C(=O)CO	–	214 °C	–
